Like-named read-outs stand apart in the source and are kept apart here.
Tests used:
[1] = tested on: pooled HLMs; assay: Initial estimation of metabolism enzymes in pooled HLMs; format: in vitro ADME, human; conditions: 5 mM ABT preincubated 30 min, 0.4 mg/mL pooled HLMs, 20 µM BYZX
Method: Initial estimation of the main metabolic pathway in HLMs was performed using specific inhibitors, or by altering experimental conditions, to identify CYP and non-CYP metabolic pathway. Three groups of incubation of BYZX with pooled HLMs under different additive processes were carried out in parallel to identify whether the metabolites produced were mediated by CYPs or not. In Group I, the incubation mixture including 0.4 mg/mL pooled HLMs protein, 4 µL of NADP/NADPH solution (0.026 M NADP and 0.012 M NADPH in 1% NaHCO3 solution) and 5 mM 1-aminobenzotriazole (ABT, 1 M dissolved in dimethyl sulfoxide, DMSO) were preincubated at 37°C for 30 min, and then 20 µM BYZX was added into the incubation system (n = 2). In Group II, the incubation mixture including 0.4 mg/mL pooled HLMs protein were preincubated at 45°C for 10 min to abolish the activities of the flavin-containing monooxygenases (FMOs), and then 20 µM BYZX was added and precincubated at 37°C for 5 min, and then 4 µL of NADP/NADPH solution was added to initiate the reaction (n = 2). In Group III, the incubation mixture including 0.4 mg/mL pooled HLMs protein and 20 µM BYZX were preincubated at 37°C for 5 min, and then 4 µL of NADP/NADPH solution or […] NaHCO3 solution were added to initiate the reaction (n = 2). […]

[2] = tested on: reductase-mediated hydrogenation of BYZX (formation of M2); assay: in vitro; format: in vitro ADME, human; conditions: human
Method: (§1) Some reductase inhibitors and substrate were used to inhibit the hydrogenate reaction of BYZX. 20 µM BYZX was incubated with 100 µM dicoumarol in human liver cytosol and was incubated with 100 µM benzylideneacetone and with 20 µM finasteride in HLMs, respectively.

[3] = tested on: PC12 cells; conditions: cited from earlier work
[4] = target: T1, CYP2C8 (Homo sapiens, UniProt P10632); assay: Incubation and kinetics with recombinant human CYP2C8; format: in vitro ADME; conditions: for K m of N-des-ethylation: recombinant CYP2C8 0.1 mg/mL
T1 construct: purchased BD Gentest (Woburn, MA); host or cells: baculovirus-insect cells
T1 sequence (P10632 1-490): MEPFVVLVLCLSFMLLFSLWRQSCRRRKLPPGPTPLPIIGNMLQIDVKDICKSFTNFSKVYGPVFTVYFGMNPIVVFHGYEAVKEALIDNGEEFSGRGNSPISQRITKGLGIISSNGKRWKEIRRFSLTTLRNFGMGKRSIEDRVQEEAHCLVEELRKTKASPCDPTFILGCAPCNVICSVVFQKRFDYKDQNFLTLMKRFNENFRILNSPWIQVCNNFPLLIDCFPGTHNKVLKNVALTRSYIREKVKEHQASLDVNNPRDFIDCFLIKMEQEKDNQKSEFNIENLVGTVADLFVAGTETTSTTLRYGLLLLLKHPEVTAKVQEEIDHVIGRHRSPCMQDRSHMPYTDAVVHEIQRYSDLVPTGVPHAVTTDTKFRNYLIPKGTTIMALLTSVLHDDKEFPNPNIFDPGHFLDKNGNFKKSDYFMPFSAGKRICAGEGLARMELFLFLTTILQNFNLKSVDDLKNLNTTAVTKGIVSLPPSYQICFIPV
Method: (§2) Commercial baculovirus-insect cell-expressed human CYPs (0.1 mg/mL) including CYP1A2, 2A6, 2B6, 2C8, 2C9, 2C19, 2D6, 2E1 and 3A4 were incubated with 20 µM BYZX and 3 µM M2 in the aforementioned method respectively. After 40 min 1 volume of ice cold methanol was added to terminate the reaction. The mixture was vortexed for 1 min and centrifuged at 13 000 rpm for 15 min. 7 µL of the supernatant was injected into the LC-MS system for analysis.
(§3) The kinetics studies were performed using human liver cytosol, HLMs, and recombinant human CYP3A4 and CYP2C8. Before the kinetic study, the incubation time and the enzyme concentration for linear formation of metabolites were optimized. The concentrations of cytosol, HLMs, CYP3A4 and CYP2C8 protein were 0.4, 0.4, 0.04 and 0.1 mg/mL, respectively. The incubation times of HLMs, CYP3A4 and CYP2C8 were […], respectively. […] The following equation was applied, assuming a Michaelis–Menten equation: V = V max× [S]/(K m+[S]), where V is the rate of reaction, V max is the maximum velocity, K m is the Michaelis constant (substrate concentration at half of V max), and [S] is the substrate concentration. Eadie-Hofstee plot was used to confirm allosteric kinetics.

[5] = tested on: chemical-induced learning and memory impairments; conditions: rodents; cited from earlier work
[6] = Metabolism and kinetics in human liver cytosol; format: in vitro ADME
Method: (§4) Moreover, very small amount of M3 was isolated from pooled incubation samples by HPLC-UV on an ODS column with a gradient solvent system consisting of methanol and 10 mM ammonium formate in water. Then, M3 were incubated in pooled HLMs, recombinant CYPs, and human cytosol to confirm the further metabolism.
as §3
Estimation of the kinetics for BYZX hydrogenation in human liver cytosol was similar to what described above. BYZX in a series of concentration (5.0, 10.0, 20.0, 40.0, 100.0, 150.0, 200.0 µM) were incubated with 0.2 mg/mL of cytosol protein for 20 min at 37°C, and the different formation rates of M2 were assayed for estimating the kinetic parameters.

[7] = target: T2, CYP3A4 (Homo sapiens, UniProt P08684); assay: Incubation and kinetics with recombinant human CYP3A4; format: in vitro ADME; parameters: purchased BD Gentest (Woburn, MA); host or cells: baculovirus-insect cells; conditions: for K m of N-des-ethylation: recombinant CYP3A4 0.04 mg/mL, BYZX fitted to allosteric sigmoidal kinetics
Method: as §2, §3
Target sequence in this assay (P08684 whole entry): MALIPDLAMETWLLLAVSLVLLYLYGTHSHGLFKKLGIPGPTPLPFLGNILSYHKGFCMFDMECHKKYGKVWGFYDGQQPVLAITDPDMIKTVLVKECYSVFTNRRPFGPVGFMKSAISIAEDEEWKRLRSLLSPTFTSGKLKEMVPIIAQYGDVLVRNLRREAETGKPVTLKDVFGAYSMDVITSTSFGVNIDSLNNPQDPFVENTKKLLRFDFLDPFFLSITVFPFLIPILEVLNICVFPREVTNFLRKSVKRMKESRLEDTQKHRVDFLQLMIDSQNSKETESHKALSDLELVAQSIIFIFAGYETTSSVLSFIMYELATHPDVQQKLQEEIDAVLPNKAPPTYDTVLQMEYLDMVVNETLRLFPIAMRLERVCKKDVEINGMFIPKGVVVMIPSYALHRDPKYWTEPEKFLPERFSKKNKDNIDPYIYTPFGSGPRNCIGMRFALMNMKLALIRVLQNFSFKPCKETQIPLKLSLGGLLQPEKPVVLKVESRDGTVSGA

[8] = Metabolism and kinetics in pooled HLMs; format: in vitro ADME, human; conditions: for K m of N-des-ethylation: HLMs 0.4 mg/mL; for microsomal CLint: pooled human liver microsomes
Method: BYZX (20 µM) was incubated in a 200 µL of reaction buffer solution containing 0.1 M Tris-HCl (pH 7.4), 0.15 M MgCl2, NADPH-generating system (9.7 mM dl-isocitrate trisodium and 0.07 unit of isocitrate dehydrogenase), and 1 mg/mL pooled HLMs. The incubation mixture was preincubated at 37°C for 5 min, and then the reaction was initiated by adding 4 µL of NADP/NADPH solution (0.026 M NADP and 0.012 M NADPH in 1% NaHCO3 solution). After incubation at 37°C for 120 min, 200 µL of cold methanol was added to terminate the reaction and precipitate the protein. The mixture was vortexed for 1 min and centrifuged at 13 000 rpm for 15 min. 7 µL of the supernatant was injected into the LC system.
as §4, §3

[9] = target: T3, NADPH-CYP450 oxidoreductase (OR) and cytochrome b5 (cyt b5) (Homo sapiens, UniProt P00167+P16435); assay: Incubation with recombinant OR and cyt b5 (Sf9 expression); format: in vitro ADME
T3 construct: made in house; host or cells: Sf9 insect cells
Method: In order to determine whether OR and cyt b5 are the reductases of BYZX, OR and cyt b5 were expressed individually and together in our previous method using insect cell expression system, Sf9 cell line, [14]. The incubation method was similar to what described above. The production of M2 was determined.

[10] = target: T2, CYP3A4; assay: in vitro; conditions: pooled human liver microsomes, probe M2 20 µM (formation of M1)
Target sequence in this assay (P08684 2-503): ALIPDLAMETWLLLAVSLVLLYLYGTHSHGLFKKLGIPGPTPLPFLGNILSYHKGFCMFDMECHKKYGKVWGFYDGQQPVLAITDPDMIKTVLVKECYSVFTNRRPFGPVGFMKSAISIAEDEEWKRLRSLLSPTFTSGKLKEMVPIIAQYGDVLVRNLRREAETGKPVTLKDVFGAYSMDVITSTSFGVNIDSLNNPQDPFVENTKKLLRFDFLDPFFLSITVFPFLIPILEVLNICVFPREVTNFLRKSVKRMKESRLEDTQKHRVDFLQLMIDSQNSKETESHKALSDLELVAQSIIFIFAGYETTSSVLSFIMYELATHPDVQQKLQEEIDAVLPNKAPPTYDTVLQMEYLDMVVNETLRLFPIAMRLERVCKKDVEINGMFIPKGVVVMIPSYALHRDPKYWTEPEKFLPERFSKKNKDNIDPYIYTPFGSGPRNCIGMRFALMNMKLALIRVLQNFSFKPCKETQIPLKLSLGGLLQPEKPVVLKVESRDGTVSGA

[11] = tested on: formation of M2 from BYZX in human liver cytosol; assay: in vitro; format: in vitro ADME; conditions: 100 µM inhibitor, 20 µM BYZX, human liver cytosol (Fig. 6B)
Method: as §1

[12] = tested on: formation of M2 from BYZX in HLMs; assay: Inhibition of BYZX hydrogenation in HLMs; format: in vitro ADME, human; conditions: 20 µM BYZX
Method: as §1

## Nn1nnc2ccccc21 [ABT, 1-aminobenzotriazole]
[1]
  Effect on formation of desethyl metabolite M3 from BYZX: extensively suppressed
  Effect on hydrogenation of BYZX to M2: not significantly inhibited

## COc1ccc2c(c1)c(CC(=O)O)c(C)n2C(=O)c1ccc(Cl)cc1 [indomethacin]
[2]
  IC50 at 20 min: 18.8 ± 1 µM

## CCN(CC)Cc1ccc(/C=C2\Cc3cc(OC)c(OC)cc3C2=O)cc1 [BYZX, (E)-2-(4-((diethylamino)methyl)benzylidene)-5,6-dimethoxy-2,3-dihydroinden-one]
[3]
  Effect on apoptosis induced by hydrogen peroxide: protect
[4]; recombinant CYP2C8
  Cl int of N-des-ethylation (M3 formation): 1.59 A.U.
  V max of N-des-ethylation (M3 formation): 0.099±0.005 A.U.
[4]
  K m of N-des-ethylation: 62.1 ± 8.2 µM
[5]
  Effect on chemical-induced learning and memory impairments: significantly improve
[6]; cytosol vs HLMs
  K m of hydrogenation in cytosol relative to HLMs: about 2 times
  Rate of hydrogenation (V max) in human liver cytosol relative to HLMs: about 15 times
[6]; human liver cytosol
  K m of hydrogenation (M2 formation): 38.9 ± 2.5 µM
  V max of hydrogenation (M2 formation): 3.56±0.07 nmol/min/mg protein
[7]; recombinant CYP3A4
  Cl int of N-des-ethylation (M3 formation): 6.76 A.U.
  V max of N-des-ethylation (M3 formation): 3.3±0.4 A.U.
[7]
  K m of N-des-ethylation: 488.2 ± 160.2 µM
[8]; HLMs
  K m of hydrogenation (M2 formation): 21.4 ± 1.4 µM
  V max of hydrogenation (M2 formation): 0.252±0.008 nmol/min/mg protein
[8]
  K m of N-des-ethylation: 46.4 ± 5.9 µM
[8]; human, microsomes
  Cl int of N-des-ethylation (M3 formation): 2.39 A.U.
[8]; human, pH 7.4
  V max of N-des-ethylation (M3 formation): 0.111±0.008 A.U.
[8]; human, pH 7.4, HLMs, read-out: Cl int of hydrogenation (M2 formation)
  microsomal CLint: 11.8 µL/min/mg
[9]; blank Sf9 cells S9
  Metabolism into M2 in S9 fraction of blank Sf9 cells: rapidly metabolized into M2
[9]; compared with blank Sf9 S9
  Rate of formation of M2 in mixture of recombinant OR and cyt b5: significantly decreased

## CC(=O)N1CCN(c2ccc(OCC3COC(Cn4ccnc4)(c4ccc(Cl)cc4Cl)O3)cc2)CC1 (stereo not shown) [ketoconazole]
[10]
  IC50: 9.8 ± 1.2 µM

## CCNCc1ccc(/C=C2\Cc3cc(OC)c(OC)cc3C2=O)cc1 [M3]
[8]; human
  Further metabolism of M3: could be further biotransformed into M1

## CCN(CC)Cc1ccc(CC2Cc3cc(OC)c(OC)cc3C2=O)cc1 (stereo not shown) [M2]
[4]; human, recombinant human CYP2C8 (baculovirus-insect cell-expressed), recombinant CYP2C8, read-out: Cl int of N-des-ethylation (M1 formation)
  microsomal CLint: 2.58 µL/min/mg
[4]; recombinant CYP2C8
  V max of N-des-ethylation (M1 formation): 0.370±0.024 nmol/min/mg protein
[4]
  K m of N-des-ethylation: 143.2 ± 17.7 µM
[7]; human, recombinant human CYP3A4 (baculovirus-insect cell-expressed), recombinant CYP3A4, read-out: Cl int of N-des-ethylation (M1 formation)
  microsomal CLint: 6.01 µL/min/mg
[7]; recombinant CYP3A4
  V max of N-des-ethylation (M1 formation): 0.392±0.016 nmol/min/mg protein
[7]
  K m of N-des-ethylation: 65.2 ± 7.2 µM
[7]; recombinant CYP3A4 vs CYP2C8
  Cl int of CYP3A4 compared with that of CYP2C8 (M1 formation): over 2 folds
[8]; HLMs
  V max of N-des-ethylation (M1 formation): 0.209±0.010 nmol/min/mg protein
[8]
  K m of N-des-ethylation: 105.7 ± 10.9 µM
[8]; human, pH 7.4, HLMs, read-out: Cl int of N-des-ethylation (M1 formation)
  microsomal CLint: 1.98 µL/min/mg

## CC(=O)C=Cc1ccccc1 [benzylideneacetone]
[11]
  Effect on hydrogenation of BYZX (formation of M2): significantly suppressed

## O=c1oc2ccccc2c(O)c1Cc1c(O)c2ccccc2oc1=O [dicoumarol]
[11]
  Effect on hydrogenation of BYZX (formation of M2): dramatic inhibitory effect
[2]
  IC50 at 20 min: 1.6 ± 1.3 µM
[12]; 0.2 mg/mL protein, 20 min
  IC50: 7.7 ± 1.2 µM

## CC(C)(C)NC(=O)[C@H]1CC[C@H]2[C@@H]3CC[C@H]4NC(=O)C=C[C@]4(C)[C@H]3CC[C@]12C [finasteride]
[12]; 20 µM finasteride
  Effect on hydrogenation of BYZX (formation of M2): no inhibitory effect

— PMC3612106, “Metabolism of BYZX in Human Liver Microsomes and Cytosol: Identification of the Metabolites and Metabolic Pathways of BYZX” (PLoS ONE, 2013)
